≈ marks a conversion by molar mass, not a printed value. Where “and” joins values, the source holds several entries; their conditions need not be identical. Equal entries are not always repeated.
Legend:
Experiment in all cases: ≥ marks a high value that may be exact or a test limit, other limits are often not marked, values filed in µg/mL are converted to µM
[1] = tested on: Staphylococcus aureus
[2] = tested on: Streptococcus sanguinis
[3] = tested on: Acinetobacter baumannii ATCC 19506
[4] = tested on: Enterococcus faecium
[5] = tested on: Streptococcus mutans
[6] = tested on: Staphylococcus aureus CUN 3792-99
[7] = tested on: Pseudomonas aeruginosa ATCC 27853
[8] = tested on: Staphylococcus aureus ATCC 43300
[9] = tested on: Staphylococcus aureus ATCC 25923
[10] = tested on: Acinetobacter baumannii
[11] = tested on: Klebsiella pneumoniae
[12] = tested on: Burkholderia cepacia
[13] = tested on: Escherichia coli ESBL
[14] = tested on: Salmonella enterica serovar Minnesota R60
[15] = tested on: Escherichia coli ATCC 25922
[16] = tested on: Candida albicans
[17] = tested on: Vibrio cholerae CUN 09
[18] = tested on: Bordetella bronchiseptica CUN 11844-99
[19] = tested on: Moraxella catarrhalis
[20] = tested on: Pseudomonas aeruginosa CUN 4158-02
[21] = tested on: Staphylococcus aureus ATCC 29213
[22] = tested on: Candida albicans ATCC 10231
[23] = tested on: Enterococcus faecalis ATCC 29212
[24] = tested on: Aspergillus brasiliensis ATCC 16404
[25] = tested on: Staphylococcus aureus SR1550
[26] = tested on: Escherichia coli K-12 594
[27] = tested on: Staphylococcus aureus ATCC 6538P
[28] = tested on: Micrococcus luteus DSM 20030
[29] = tested on: Salmonella typhimurium TA100
[30] = tested on: Staphylococcus epidermidis ATCC 12228
[31] = tested on: Candida krusei CGMCC 2.1857
[32] = tested on: Candida parapsilosis CGMCC 2.3989
[33] = tested on: Salmonella enterica subsp. enterica serovar Pullorum ATCC 7913
[34] = tested on: Candida tropicalis CGMCC 2.1975
[35] = tested on: Escherichia coli 1005
[36] = tested on: Salmonella enterica subsp. enterica serovar Typhimurium ATCC 14028
[37] = tested on: Staphylococcus aureus ATCC 12600
[38] = tested on: Micrococcus luteus ATCC 49732
[39] = tested on: Candida albicans ATCC 14053
[40] = tested on: Escherichia coli ATCC 11775

NC(=O)[C@H](Cc1ccccc1)NC(=O)[C@H](Cc1ccccc1)NC(=O)[C@H](Cc1ccccc1)NC(=O)[C@@H](N)Cc1ccccc1 [FFFF]
MIC [1]: 583 µM (≈ 353 µg/mL)
MIC [2]: ≥ 291 µM

NCCCC[C@H](NC(=O)CNC(=O)[C@H](CCCCN)NC(=O)[C@H](Cc1ccccc1)NC(=O)[C@H](CCCCN)NC(=O)[C@H](Cc1c[nH]c2ccccc12)NC(=O)[C@H](CCCN=C(N)N)NC(=O)[C@H](Cc1ccccc1)NC(=O)[C@H](CCCN=C(N)N)NC(=O)[C@H](CCCN=C(N)N)NC(=O)[C@H](Cc1ccc(O)cc1)NC(=O)[C@H](CCCCN)NC(=O)[C@H](CCCCN)NC(=O)[C@H](CS)NC(=O)CN)C(=O)N[C@@H](Cc1ccccc1)C(=O)N[C@@H](Cc1c[nH]c2ccccc12)C(=O)N[C@@H](Cc1ccccc1)C(=O)N[C@@H](Cc1c[nH]c2ccccc12)C(=O)NCC(N)=O [GCKKYRRFRWKFKGKFWFWG]
MIC [3]: ≥ 47.2 µM
MIC [4]: 11.8 µM (≈ 32 µg/mL)
MIC [5]: 11.8 µM (≈ 32 µg/mL)
MIC [6]: ≥ 47.2 µM
MIC [7]: 94.4 µM (≈ 256 µg/mL)
MIC [8]: 11.8 µM (≈ 32 µg/mL)
MIC [9]: 11.8 µM (≈ 32 µg/mL)
MIC [10]: ≥ 47.2 µM
MIC [11]: > 47.2 µM
MIC [12]: 11.8 µM (≈ 32 µg/mL)
MIC [13]: ≥ 47.2 µM and 23.6 µM
MIC [14]: 11.8 µM (≈ 32 µg/mL)
MIC [15]: 47.2 µM (≈ 128 µg/mL)
MIC [16]: 94.4 µM (≈ 256 µg/mL)
MIC [17]: ≥ 94.4 µM
MIC [18]: 11.8 µM (≈ 32 µg/mL)
MIC [19]: 11.8 µM (≈ 32 µg/mL)
MIC [20]: ≥ 47.2 µM

CC[C@H](C)[C@H](NC(=O)[C@H](CCCCN)NC(=O)CNC(=O)[C@@H]1CCCN1C(=O)[C@H](Cc1cnc[nH]1)NC(=O)[C@H](CC(C)C)NC(=O)[C@H](CC(C)C)NC(=O)[C@H](Cc1ccc(O)cc1)NC(=O)[C@H](CS)NC(=O)CN)C(=O)N[C@@H](CS)C(=O)N[C@@H](Cc1ccc(O)cc1)C(=O)O [GCYLLHPGKICY]
MIC [21]: > 64 µM
MIC [22]: > 64 µM
MIC [7]: > 64 µM
MIC [23]: > 64 µM
MIC [24]: ≥ 64 µM
MIC [15]: > 64 µM

CC(C)C[C@H](NC(=O)[C@H](Cc1cnc[nH]1)NC(=O)[C@H](CC(C)C)NC(=O)[C@H](CC(C)C)NC(=O)[C@H](CC(C)C)NC(=O)[C@H](CC(C)C)NC(=O)[C@H](CC(C)C)NC(=O)[C@H](Cc1cnc[nH]1)NC(=O)[C@H](CC(C)C)NC(=O)[C@@H](N)Cc1cnc[nH]1)C(=O)N[C@@H](Cc1cnc[nH]1)C(N)=O [HLHLLLLLHLH]
MIC [25]: 25.8 µM (≈ 35 µg/mL)
MIC [26]: 25.8 µM (≈ 35 µg/mL)
MIC [27]: 11.8 µM (≈ 16 µg/mL)

CC(C)C[C@H](NC(=O)CNC(=O)[C@H](CCCCN)NC(=O)[C@H](CS)NC(=O)[C@@H](NC(=O)[C@H](CCCN=C(N)N)NC(=O)[C@H](CCCCN)NC(=O)[C@H](CC(N)=O)NC(=O)[C@H](CC(N)=O)NC(=O)[C@H](CCC(N)=O)NC(=O)[C@H](CCCN=C(N)N)NC(=O)[C@@H](NC(=O)[C@H](CS)NC(=O)[C@@H](N)CCCCN)C(C)C)C(C)C)C(=O)N[C@@H](CCCN=C(N)N)C(=O)N[C@@H](CCCCN)C(=O)N[C@@H](CCCN=C(N)N)C(=O)N[C@@H](CC(C)C)C(=O)N[C@@H](CCCN=C(N)N)C(=O)N[C@@H](CCCCN)C(=O)N[C@@H](Cc1ccccc1)C(=O)N[C@@H](CCCN=C(N)N)C(=O)N[C@@H](CC(N)=O)C(=O)N[C@@H](CCCCN)C(N)=O [KCVRQNNKRVCKGLRKRLRKFRNK]
MIC [28]: 13.5 µM (≈ 40.8 µg/mL)
MIC [29]: 12.6 µM (≈ 38.3 µg/mL)

CC(C)C[C@H](NC(=O)[C@H](CCCN=C(N)N)NC(=O)[C@H](CC(C)C)NC(=O)[C@H](CC(C)C)NC(=O)[C@H](CC(C)C)NC(=O)[C@H](CCCN=C(N)N)NC(=O)[C@H](CC(C)C)NC(=O)[C@H](CCCN=C(N)N)NC(=O)[C@@H](N)CCCN=C(N)N)C(=O)N[C@@H](CCCN=C(N)N)C(=O)N[C@@H](CCCN=C(N)N)C(N)=O [RRLRLLLRLRR]
MIC [21]: 16 µM (≈ 24.3 µg/mL)
MIC [30]: 4 µM (≈ 6.08 µg/mL)
MIC [8]: 8 µM (≈ 12.2 µg/mL)
MIC [9]: 4 µM (≈ 6.08 µg/mL)
MIC [31]: 4 µM (≈ 6.08 µg/mL)
MIC [32]: ≥ 64 µM
MIC [33]: 2 µM (≈ 3.04 µg/mL)
MIC [34]: 2 µM (≈ 3.04 µg/mL)
MIC [16]: 4 µM (≈ 6.08 µg/mL)
MIC [35]: 4 µM (≈ 6.08 µg/mL)
MIC [36]: 4 µM (≈ 6.08 µg/mL)

CSCC[C@H](NC(=O)[C@@H](NC(=O)[C@@H](N)[C@@H](C)O)[C@@H](C)O)C(=O)N1CCC[C@H]1C(=O)N[C@@H](CC(C)C)C(=O)N[C@@H](Cc1c[nH]c2ccccc12)C(=O)O [TTMPLW]
MIC [37]: ≥ 193 µM
MIC [38]: ≥ 64 µM
MIC [39]: ≥ 144 µM
MIC [40]: ≥ 193 µM

— DBAASP
